Assay results reported in patent publication US6855730B2, “3-methylidenyl-2-indolinone modulators of protein kinase” (Sugen, Inc., priority 1998, dated 2005).

Biological target: EGFR (Homo sapiens, UniProt P00533)
Assay: Biochemical EGFR assay (ELISA, A431 cell lysate)
Design: A431 cell lysate (Screening Lab, SUGEN, Inc.); host or cells: A431
Conditions: read-out: bio EGFr IC50
Procedure, shortened: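 EGFR captured from A431 cell lysate onto anti-EGFR-coated plates, then incubated with test compound for 30 min at room temperature. Tyrosine phosphorylation with ATP/MnCl2 was stopped with EDTA after 5 min and detected by anti-phosphotyrosine ELISA with peroxidase/ABTS read-out.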

Sequence of EGFR (P00533 25-1210): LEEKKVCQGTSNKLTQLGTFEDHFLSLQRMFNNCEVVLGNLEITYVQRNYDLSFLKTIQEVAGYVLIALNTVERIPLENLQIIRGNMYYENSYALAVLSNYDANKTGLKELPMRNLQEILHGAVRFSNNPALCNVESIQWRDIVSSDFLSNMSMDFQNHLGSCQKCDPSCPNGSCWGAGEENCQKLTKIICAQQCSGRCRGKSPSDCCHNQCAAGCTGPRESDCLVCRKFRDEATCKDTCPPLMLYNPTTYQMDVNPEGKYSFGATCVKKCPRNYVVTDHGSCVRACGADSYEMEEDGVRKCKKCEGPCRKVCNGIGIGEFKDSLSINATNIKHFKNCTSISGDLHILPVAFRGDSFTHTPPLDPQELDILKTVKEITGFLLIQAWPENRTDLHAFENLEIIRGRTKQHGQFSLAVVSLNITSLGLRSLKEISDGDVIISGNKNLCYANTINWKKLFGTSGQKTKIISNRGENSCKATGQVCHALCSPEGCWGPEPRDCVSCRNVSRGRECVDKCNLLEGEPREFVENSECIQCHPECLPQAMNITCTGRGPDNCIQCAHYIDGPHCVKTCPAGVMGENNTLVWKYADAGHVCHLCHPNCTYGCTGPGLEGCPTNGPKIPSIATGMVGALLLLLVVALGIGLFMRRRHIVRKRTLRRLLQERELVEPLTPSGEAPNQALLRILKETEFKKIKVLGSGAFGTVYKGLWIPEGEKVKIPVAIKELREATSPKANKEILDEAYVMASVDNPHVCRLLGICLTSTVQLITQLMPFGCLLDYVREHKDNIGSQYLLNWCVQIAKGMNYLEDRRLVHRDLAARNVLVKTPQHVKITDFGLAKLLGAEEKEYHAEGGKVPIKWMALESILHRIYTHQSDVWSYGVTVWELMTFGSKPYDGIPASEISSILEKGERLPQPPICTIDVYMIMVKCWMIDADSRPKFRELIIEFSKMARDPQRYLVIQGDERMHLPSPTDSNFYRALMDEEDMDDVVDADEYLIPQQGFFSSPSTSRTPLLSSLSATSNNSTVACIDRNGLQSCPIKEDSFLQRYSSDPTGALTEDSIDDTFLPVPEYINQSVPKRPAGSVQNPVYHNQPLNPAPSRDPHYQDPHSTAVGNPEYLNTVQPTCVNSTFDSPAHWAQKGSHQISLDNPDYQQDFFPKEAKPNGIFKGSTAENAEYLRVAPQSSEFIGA

IC50, > 100 µM:
COc1ccc(C=C2C(=O)Nc3cc(NC(C)=O)ccc32)cc1-c1cccc(NC(C)=O)c1 (mixture of isomers) [Example 63, N-[3-(3′-Acetylamino-6-methoxybiphenyl-3-ylmethylene)-2-oxo-2,3-dihydro-1H-indol-6-yl]-acetamide]
CC1(C)CCc2cc(C=C3C(=O)Nc4ccc(Br)cc43)ccc2O1 (racemic) [Example 34, 5-Bromo-3-(2,2-dimethylchroman-6-ylmethylene)-1,3-dihydroindol-2-one]
CNS(=O)(=O)c1ccc2c(c1)C(=Cc1[nH]c3ccccc3c1C)C(=O)N2 (racemic) [Example 154, 3-(3-Methyl-1H-indol-2-ylmethylene)-2-oxo-2,3-dihydro-1H-indole-5-sulfonic acid methylamide]
COc1c(C(C)C)cc(/C=C2/C(=O)Nc3cc(O)ccc32)cc1C(C)C [Example 4, 3-(3,5-Diisopropyl-4-methoxybenzylidene)-6-hydroxy-1,3-dihydroindol-2-one]
COc1c(C(C)C)cc(/C=C2/C(=O)Nc3ccc(C(C)=O)cc32)cc1C(C)C [Example 5, 5-Acetyl-3-(3,5-diisopropyl-4-methoxybenzylidene)-1,3dihydroindol-2-one]
COC(=O)c1ccc2c(c1)/C(=C\c1cc(C(C)C)c(OC)c(C(C)C)c1)C(=O)N2 [Example 6, 3-(3,5-Diisopropyl-4-methoxybenzylidene)-2-oxo-2,3-dihydro-1H-indole-5-carboxylic acid methyl ester]
COc1ccc(/C=C2/C(=O)Nc3ccccc32)cc1C(C)C [Example 7, 3-(3-Isopropyl-4-methoxybenzylidene)-1,3-dihydroindol-2-one]
COc1cc(C)c(C=C2C(=O)Nc3ccccc32)cc1C(C)C [Example 8, 3-(5-Isopropyl-4-methoxy-2-methylbenzylidene)-1,3-dihydroindol-2-one]
COc1cc(C)c(C=C2C(=O)Nc3ccc(Cl)cc32)cc1C(C)C [Example 9, 5-Chloro-3-(5-isopropyl-4-methoxy-2-methylbenzylidene)-1,3-dihydroindol-2-one]
COc1ccc(/C=C2/C(=O)Nc3ccccc32)cc1C1CCCC1 [Example 10, 3-(3-Cyclopentyl-4-methoxybenzylidene)-1,3-dihydroindol-2-one]
COc1ccc(/C=C2/C(=O)Nc3ccc(F)cc32)cc1C1CCCC1 [Example 11, 3-(3-Cyclopentyl-4-methoxybenzylidene)-5-fluoro-1,3-dihydroindol-2-one]
COc1ccc(/C=C2/C(=O)Nc3ccccc32)cc1C1CCCCC1 [Example 12, 3-(3-Cyclohexyl-4-methoxybenzylidene)-1,3-dihydroindol-2-one]
COc1ccc(/C=C2/C(=O)Nc3ccc(Br)cc32)cc1-c1ccccc1 [Example 13, 5-Bromo-3-(6-methoxybiphenyl-3-ylmethylene)-1,3-dihydroindol-2-one]
O=C1Nc2ccc(Cl)cc2/C1=C\c1ccc2c(c1)CCO2 [Example 14, 5-Chloro-3-(2,3-dihydro-benzofuran-5-ylmethylene)-1,3-dihydroindol-2-one]
CC1(C)CCc2cc(/C=C3/C(=O)Nc4ccc(Cl)cc43)ccc2O1 [Example 15, 5-Chloro-3-(2,2-dimethyl-chroman-6-ylmethylene)-1,3-dihydroindol-2-one]
CC(=O)Nc1ccc2c(c1)NC(=O)/C2=C/c1ccc(OCCN2CCOCC2)c(C2CCCCC2)c1 [Example 16, N-{3-[3-Cyclohexyl-4-(2-morpholin-4-ylethoxy)-benzylidene]-2-oxo-2,3-dihydro-1H-indol-6-yl}-acetamide]
COc1ccc2c(c1)/C(=C\c1cc(C(C)C)c(OC)c(C(C)C)c1)C(=O)N2 [Example 17, 3-(3,5-Diisopropyl-4-methoxybenzylidene)-5-methoxy-1,3-dihydroindol-2-one]
COc1ccc(/C=C2/C(=O)Nc3cc(NC(C)=O)ccc32)cc1-c1ccsc1 [Example 18, N-[3-(4-Methoxy-3-thiophene-3-ylbenzylidene)-2-oxo-2,3-dihydro-1H-indol-6-yl]-acetamide]
COc1c(C(C)C)cc(/C=C2/C(=O)Nc3ccc(C)cc32)cc1C(C)C [Example 19, 3-(3,5-Diisopropyl-4-methoxybenzylidene)-5-methyl-1,3-dihydroindol-2-one]
COc1c(C(C)C)cc(/C=C2/C(=O)Nc3ccc(N)cc32)cc1C(C)C [Example 20, 5-Amino-3-(3,5-diisopropyl-4-methoxy-benzylidene)-1,3-dihydroindol-2-one]
COc1c(C)cc(/C=C2/C(=O)Nc3ccc(Cl)cc32)cc1C [Example 21, 5-Chloro-3-(4-methoxy-3,5-dimethylbenzylidene)-1,3-dihydroindol-2-one]
COc1c(C(C)C)cc(/C=C2/C(=O)Nc3cc(F)ccc32)cc1C(C)C [Example 22, 3-(3,5-Diisopropyl-4-methoxybenzylidene)-6-fluoro-1,3-dihydroindol-2-one]
CC1(C)CCc2cc(/C=C3/C(=O)Nc4ccc(F)cc43)ccc2O1 [Example 23, 3-(2,2-Dimethylchroman-6-ylmethylene)-5-fluoro-1,3-dihydroindol-2-one]
CC(C)c1cc(/C=C2/C(=O)Nc3ccc(Cl)cc32)cc(C(C)C)c1OCCN1CCOCC1 [Example 24, 5-chloro-3-[3,5-diisopropyl-4-(2-morpholin-4-ylethoxy)-benzylidene]-1,3-dihydroindol-2-one]
COc1ccc(/C=C2/C(=O)Nc3ccc(CCN4CCOCC4)cc32)cc1-c1ccsc1 [Example 26, 3-(4-Methoxy-3-thiophen-3-ylbenzylidene)-5-(2-morpholin-4-yl-ethyl)-1,3-dihydroindol-2-one]
COc1cc(C)c(C=C2C(=O)Nc3cc(NC(C)=O)ccc32)cc1C(C)C [Example 27, N-[3-(5-Isopropyl-4-methoxy-2-methyl-benzylidene)-2-oxo-2,3-dihydro-1H-indol-6-yl]-acetamide]
CCc1ccc2c(c1)/C(=C\c1cc(C(C)C)c(OC)c(C(C)C)c1)C(=O)N2 [Example 28, 3-(3,5-Diisopropyl-4-methoxbenzylidene)-5-ethyl-1,3-dihydroindol-2-one]
COc1ccc(C=C2C(=O)Nc3ccccc32)cc1-c1cccc(NC(C)=O)c1 [Example 29, N-[2′-Methoxy-5′-(2-oxo-1,2-dihydroindol-3-ylidenemethyl)-biphenyl-3-yl]-acetamide]
COc1cc(C)c(/C=C2/C(=O)Nc3ccc(F)cc32)cc1C(C)C [Example 30, 5-Fluoro-3-(5-isopropyl-4-methoxy-2-methyl-benzylidene)-1,3-dihydroindol-2-one]
COc1ccc(/C=C2/C(=O)Nc3cc(NC(C)=O)ccc32)cc1-c1cccs1 [Example 31, N-[3-(4-Methoxy-3-thiophen-2-ylbenzylidene)-2-oxo-2,3-dihydro-1H-indol-6-yl]-acetamide]
COc1c(C(C)C)cc(/C=C2/C(=O)Nc3cc(N)ccc32)cc1C(C)C [Example 32, 6-Amino-3-(3,5-diisoprotyl-4-methoxy-benzylidene)-1,3-dihydroindol-2-one]
CC(=O)Nc1ccc2c(c1)NC(=O)/C2=C\c1ccc2c(c1)CCC(C)(C)O2 [Example 33, N-[3-(2,2-Dimethylchroman-6-ylmethylene)-2-oxo-2,3-dihydro-1H-indol-6-yl]-acetamide]
COc1ccc(/C=C2/C(=O)Nc3ccccc32)cc1-c1ccsc1 [Example 35, 3-(4-Methoxy-3-thiophen-3-ylbenzylidene)-1,3-dihydroindol-2-one]
COc1cc(C)c(/C=C2/C(=O)Nc3ccc(Br)cc32)cc1C(C)C [Example 36, 5-Bromo-3-(5-isopropyl-4-methoxy-2-methyl-benzylidene)-1,3-dihydroindol-2-one]
COc1ccc(/C=C2/C(=O)Nc3ccc(F)cc32)cc1-c1ccccc1 [Example 37, 5-Fluoro-3-(6-methoxybiphenyl-3-ylmethylene)-1,3-dihydroindol-2-one]
COc1ccc(/C=C2\C(=O)Nc3cccc(C)c32)cc1C(C)C [Example 38, 3-(3-Isopropyl-4-methoxybenzylidene)-4-methyl-1,3-dihydroindol-2-one]
COc1cc(/C=C2/C(=O)Nc3ccccc32)c(-c2cccs2)cc1OC [Example 39, 3-(4,5-Dimethoxy-2-thiophen-2-ylbenzylidene)-1,3-dihydroindol-2-one]
CC(=O)Nc1ccc2c(c1)NC(=O)/C2=C/c1ccc(OCCN2CCOCC2)c(-c2cccs2)c1 [Example 40, N-{3-[4-(2-Morpholin-4-ylethoxy)-3-thiophen-2-ylbenzylidene]-2-oxo-2,3-dihydro-1H-indol-6-yl}-acetamide]
Cc1cccc2c1/C(=C/c1ccc3c(c1)CCC(C)(C)O3)C(=O)N2 [Example 41, 3-(2,2-Dimethylchroman-6-ylmethylene)-4-methyl-1,3-dihydroindol-2-one]
O=C1Nc2ccc(F)cc2/C1=C\c1ccc2c(c1)CCO2 [Example 42, 3-(2,3-Dihydrobenzofuran-5-ylmethylene)-5-fluoro-1,3-dihydroindol-2-one]
COc1ccc(/C=C2/C(=O)Nc3ccc(F)cc32)cc1C1CCCCC1 [Example 43, 3-(3-Cyclohexyl-4-methoxybenzylidene)-5-fluoro-1,3-dihydroindol-2-one]
COc1ccc(/C=C2/C(=O)Nc3ccc(F)cc32)cc1C(C)C [Example 44, 5-Fluoro-3-(3-isopropyl-4-methoxybenzylidene)-1,3-dihydroindol-2-one]
